In patent US6958321B2, “Isolation, characterization, cloning and use of a mushroom lectin” (The Regents of the University of Michigan, priority 2001, dated 2005):

T1: alpha-Galactosidase-digested alpha2-macroglobulin glycoprotein (from volunteer 4) (human, UniProt P01023 24-1474, terminal alpha-galactose removed with alpha-galactosidase)
T1 construct: mature; also called alpha-Galactosidase-digested glycoprotein from volunteer 4; treated fractions containing principally alpha2-macroglobulin
T1 sequence (looked up): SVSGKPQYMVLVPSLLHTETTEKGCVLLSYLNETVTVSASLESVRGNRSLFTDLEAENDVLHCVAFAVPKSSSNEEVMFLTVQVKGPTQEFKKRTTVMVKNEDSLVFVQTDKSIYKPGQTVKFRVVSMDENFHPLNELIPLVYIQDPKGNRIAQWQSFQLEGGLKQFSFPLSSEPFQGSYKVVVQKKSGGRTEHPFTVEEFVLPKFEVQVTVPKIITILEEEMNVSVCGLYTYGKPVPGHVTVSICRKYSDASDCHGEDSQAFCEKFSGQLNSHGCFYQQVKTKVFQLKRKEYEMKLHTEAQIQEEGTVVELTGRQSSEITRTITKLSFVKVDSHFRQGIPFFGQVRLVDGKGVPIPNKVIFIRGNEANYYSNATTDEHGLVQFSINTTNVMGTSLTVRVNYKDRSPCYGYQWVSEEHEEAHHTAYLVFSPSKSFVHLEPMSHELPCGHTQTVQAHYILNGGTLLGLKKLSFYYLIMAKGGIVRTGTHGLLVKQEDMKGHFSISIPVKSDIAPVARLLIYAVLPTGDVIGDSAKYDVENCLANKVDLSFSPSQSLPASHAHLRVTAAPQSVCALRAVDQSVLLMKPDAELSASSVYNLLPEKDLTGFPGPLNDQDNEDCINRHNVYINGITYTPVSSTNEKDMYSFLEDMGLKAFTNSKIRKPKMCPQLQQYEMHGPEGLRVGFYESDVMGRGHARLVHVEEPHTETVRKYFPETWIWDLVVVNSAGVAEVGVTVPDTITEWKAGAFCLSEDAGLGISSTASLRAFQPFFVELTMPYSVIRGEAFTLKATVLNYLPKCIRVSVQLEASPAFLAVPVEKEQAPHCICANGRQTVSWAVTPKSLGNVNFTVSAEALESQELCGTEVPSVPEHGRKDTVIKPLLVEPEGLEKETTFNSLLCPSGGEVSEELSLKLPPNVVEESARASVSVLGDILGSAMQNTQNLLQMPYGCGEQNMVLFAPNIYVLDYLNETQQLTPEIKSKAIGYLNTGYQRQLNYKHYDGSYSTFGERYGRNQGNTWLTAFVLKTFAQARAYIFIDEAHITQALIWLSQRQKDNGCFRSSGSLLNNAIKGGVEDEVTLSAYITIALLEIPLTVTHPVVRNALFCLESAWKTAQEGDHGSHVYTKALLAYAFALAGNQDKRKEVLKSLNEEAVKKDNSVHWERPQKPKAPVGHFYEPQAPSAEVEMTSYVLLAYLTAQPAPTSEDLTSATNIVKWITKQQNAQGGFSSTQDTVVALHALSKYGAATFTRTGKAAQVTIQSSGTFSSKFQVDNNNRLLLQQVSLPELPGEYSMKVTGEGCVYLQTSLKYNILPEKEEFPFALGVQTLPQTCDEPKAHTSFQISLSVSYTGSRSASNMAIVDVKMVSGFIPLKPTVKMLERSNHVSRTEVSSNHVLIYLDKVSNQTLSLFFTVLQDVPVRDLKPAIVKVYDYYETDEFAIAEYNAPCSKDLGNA

T2: Asialofetuin (UniProt P12763 19-359, desialylated glycans with terminal Gal-beta-1,4-GlcNAc)
T2 sequence (looked up): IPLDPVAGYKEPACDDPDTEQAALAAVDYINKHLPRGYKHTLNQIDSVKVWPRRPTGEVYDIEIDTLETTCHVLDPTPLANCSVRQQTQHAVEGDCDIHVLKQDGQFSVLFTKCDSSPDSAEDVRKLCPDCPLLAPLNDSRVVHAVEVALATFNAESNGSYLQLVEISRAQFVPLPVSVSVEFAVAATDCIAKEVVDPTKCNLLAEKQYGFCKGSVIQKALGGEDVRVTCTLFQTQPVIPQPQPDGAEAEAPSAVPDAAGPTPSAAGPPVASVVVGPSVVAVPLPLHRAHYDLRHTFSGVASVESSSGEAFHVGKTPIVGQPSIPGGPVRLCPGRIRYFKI

B1: Ulex europaeus I lectin (other, UniProt P22972 1-243, looked up)
chain: SDDLSFKFKNFSQNGKDLSFQGDASVIETGVLQLNKVGNNLPDETGGIARYIAPIHIWNCNTGEVASFITSFSFFMETSANPKAATDGLTFFLAPPDSPLRRAGGYFGLFEDTKDNDSSYQTVAVEFDTIGSPVNFDDPGFPHIGIDVNRVKSINAERWNKRYGLNNVANVEIIYEASSKTLTASLTYPSDQTSISVTSIVDLKEILPEWVSVGFSGGTYIGRQATHEVLNWYFTSNLINTNS
notes: also called Ulex I
B2: Lotus lectin (other, UniProt P19664 1-240, looked up)
chain: VSFNYTEFKDDGSLILQGDAKIWTDGRLAMPTDPLVNNPKTTRSAGRALYATPVPIWDSATGNVASFVTSFNFLFVIRELKYTPTDGLVFFLAPVGTEIPSGSTGGFLGIFDGSNGFNQFVAVEFDSYHNIWDPKSLRSSHVGIDVNSIMSLKAVNWNRVSGSLEKATIIYDSQTNILSVVMTSQNGQITTIYGTIDLKTVLPEKVSVGFSATTGNPEREKHDIYSWSFTSTLKEPEEQA
B3: Intact native Marasmius oreades agglutinin (MOA) prepared by the method of Example 2 (other)
chain: MSLRRGIYHIENAGVPSAIDLKDGSSSDGTPIVGWQFTPDTINWHQLWLAEPIPNVADTFTLCNLFSGTYMDLYNGSSEAGTAVNGWQGTAFTTNPHQLWTIKKSSDGTSYKIQNYGSKTFVDLVNGDSSDGAKIAGWTGTWDEGNPHQKWYFNRMSVSSAEAQAAIARNPHIHGTYRGYILDGEYLVLPNATFTQIWKDSGLPGSKWREQIYDCDDFAIAMKAAVGKWGADSWKANGFAIFCGVMLGVNKAGDAAHAYNFTLTKDHADIVFFEPQNGGYLNDIGYDSYMAFY
modifications: blocked N-terminus (possibly N-acetyl)
notes: also called native MOA; immobilized MOA
B4: Recombinant MOA: MOA expressed in E. coli from a pT7 vector and affinity purified (protein)
chain: B3 chain

Tests used:
MOA = assay: Quantitative precipitation assay with MOA; format: binding, Marasmius oreades; conditions: 20 μg MOA, PBS pH 7.2, 48 hr at 4° C.
Experimental: In other embodiments, blood group specificity of MOA is determined by quantitative precipitation assays. Quantitative microprecipitation assays with soluble cyst blood group substances and inhibition of precipitation by sugar haptens were performed as described in Mo et al., [J. Biol. Chem. 275:10623 (2000)].
For quantitative precipitation assays, 20 μg of MOA and increasing amounts of glycoprotein or polysaccharide were used in a total volume of 120 to 200 μL, all in PBS/0.15 M NaCl. Quantitative carbohydrate hapten inhibition assays were conducted by adding increasing amounts of haptens to a mixture of MOA (20 μg) and type B blood group substance (5.0 μg). The reactions were incubated at 37° C. for an hour and then at 4° C. for 48 hours followed by centrifugation of the precipitates, washing, and determination of protein by the Lowry method [Lowry, O. H. et al., J. Biol. Chem. 193, 265-275 (1951)].
Varying amounts of blood group substances from 0 to 200 μg were incubated with 20 μg of MOA in a total volume of 150 μl of PBS (pH 7.2). After 48 hr at 4° C., the amounts of protein precipitated were quantified as described above. Solid squares indicate group A substance, solid circles indicate group B substance, and solid triangles indicate group O substance.
Various amounts of glycoconjugates, ranging from 0 to 100 μg were incubated with 20 μg of lectin in a total volume of 150 μl of PBS (pH 7.2). After 48 hr at 4° C., the amounts of protein precipitated were quantified, as described above. Solid circles indicate MOA interaction with laminin, solid crosses indicate MOA interaction with bovine thyroglobulin, solid squares indicate MOA interaction with C. alata galactomannan, solid triangles indicate MOA interaction with pigeon ovalbumin, open circles indicate MOA interaction with Ga1NAcα1,3Ga1β-polyacrylamide, open squares indicate GS I-B4 interaction with pigeon ovalbumin and closed inverted triangles indicate GS I-B4 interaction with Ga1NAcα1,3Ga1β-polyacrylamide.

immobilized MOA = assay: Binding to MOA-Sepharose 4B affinity column; set-up: species or system Marasmius oreades; conditions: washed with PBS, eluted with 20 mM diaminopropane
Description: Further insight into the carbohydrate specificity of MOA was obtained by using immobilized MOA. Immobilization of MOA on a variety of supports is contemplated. In one embodiment, MOA is immobilized on a matrix that can be used in an affinity column (see below). In some embodiments, the matrix comprises Sepharose 4B beads. In some Embodiments, the MOA-conjugated Sepharose 4B beads are packed in a column for binding and affinity isolation and purification studies. Briefly, the MOA-Sepharose column is loaded with glycan, glycoconjugate or serum sample to be tested, then washed with an appropriate buffer (including but not limited to PBS). Bound components are eluted with a suitable elution buffer (including but not limited to 1,3-diaminopropane in NaCl), and the collected fractions are analyzed for the presence of protein or glycan (see Example 6 below). The fractions containing the bound components (eluted as described herein) can be pooled and concentrated.
MOA was immobilized on cyanogen bromide-activated Sepharose 4B as follows. 1.5 g of cyanogen bromide-activated Sepharose 4B was allowed to swell in 100 ml of 1 mM HCl solution for 30 min. The supernatant was removed and the swollen beads (6 ml) were filtered on a sintered funnel, washed several times with 100 ml of 1 mM HCl and finally with 20 ml of 0.1 M sodium bicarbonate buffer, pH 8.3, containing 0.5 M sodium chloride. The beads were quickly transferred to a plastic bottle containing 16.2 mg MOA in the same buffer (10 ml) containing 0.2 M lactose. The plastic bottle was shaken at room temperature for 6 hr and at 4° C. overnight. The beads were filtered on a sintered glass funnel, washed with the coupling buffer, and then shaken in 1 M ethanolamine (12 ml) at room temperature for 2.5 hr to cap all of the unreacted iminocarbonate groups. The beads were filtered, washed alternately with the coupling buffer then sodium acetate buffer (0.1 M, pH 4.0 containing 0.5 M NaCl) four times. A column (1×7 cm) packed with the beads was finally washed with PBS containing 0.04% sodium azide. The beads contained 2.3 mg MOA per ml Sepharose 4B, based on MOA remaining in solution.
In order to assess the binding of various glycans, glycoconjugates and serum samples to MOA-Sepharose, the following general procedure was used. The MOA-Sepharose column was loaded with glycan, glycoconjugate or serum sample (0.6-5 ml) and washed with PBS (15 ml). The bound components were eluted with 20 mM 1,3-diaminopropane in 0.15 M NaCl (15 ml). The fractions collected (1 ml) were neutralized with 1 M phosphoric acid (approximately 16 μl), and analyzed by either absorbance at 280 nm for protein, or by phenol-sulfuric acid assay, as described by Dubois et al. [Anal. Chem. 28: 350 (1956)] for the glycan. The column was finally washed thoroughly with PBS. The fractions containing the bound components were pooled and concentrated by Amicon ultrafiltration (Millipore Corp., Bedford, Mass.) using a membrane (YM10) of 10,000 molecular weight cut-off.

[1] = molecular target: T1, alpha-Galactosidase-digested …; assay: agar gel diffusion, precipitin
Asialofetuin = molecular target: T2, Asialofetuin; assay: affinity chromatography on MOA-Sepharose 4B, PBS wash then elution with 20 mM 1,3-diaminopropane in 0.15 M NaCl, A280 of 1 ml fractions
[2] = Solubility and activity of salt-free lyophilisates; format: physicochemical
Experimental: Purification of recombinant MOA and native intact MOA-Recombinant MOA was purified from the soluble fraction by absorption on a column of melibiose-Sepharose and elution by lactose. Further purification was carried out on an affinity column of Synsorb B. Except for the diaminopropane elution, all affinity purifications were carried out in PBS, pH 7.2, containing 1.25 mM EDTA. After purification, lectin solutions were dialyzed against distilled water and lyophilized. […] Intact native MOA was prepared with a purification procedure (Example 2) that utilized a protease inhibitor cocktail (product P8215, Sigma, St. Louis, Mo.) which was added at the level of 0.1 ml/100 ml extract buffer (instead of phenylmethylsulfonyl fluoride), all buffers lacked Ca^++ and contained 1.25 mM EDTA, and the initial extraction and ammonium sulfate fractionations were carried out under an atmosphere of argon.

Row | Molecule | precipitation with MOA (MOA) | binding to MOA-Sepharose column (immobilized MOA) | also measured
1 | bovine thyroglobulin: bovine thyroglobulin, with Galα1,3Galβ1,4GlcNAc end groups | reacted strongly | bound tightly | –
2 | Galactomannan | did not precipitate | failed to bind | –
3 | laminin: Laminin purified from the EHS sarcoma, with Galα1,3Galβ1,4GlcNAc end groups | reacted strongly | bound tightly | –
4 | B1 | – | – | binding result [1]: binds
5 | B2 | – | – | binding result [1]: no binding
6 | B3 | – | – | binding result (Asialofetuin): no binding
7 | B4 | – | – | solubility of salt-free lyophilisates ([2]; distilled water or buffer): readily soluble; agglutinating activity after lyophilisation ([2]; redissolved lyophilisates): retention of full agglutinating activity
